Measurements as given in ChEMBL document CHEMBL2385028, “Augmentation of GABAergic neurotransmission by novel N-(substituted)-2-[4-(substituted)benzylidene]hydrazinecarbothioamides-a potential anticonvulsant approach” (Eur J Med Chem, 2013).
Each block holds one compound with its values, some of them ahead of it. Activity calls are given as the source filed them. No cut-off for these calls is given here.

Legend:
physchem = details: octanol/phosphate buffer
Description: Octanol-phosphate buffer partition coefficient, log P of the compound after 24 hrs by UV spectroscopic analysis

Mus musculus [1] = assay: Anticonvulsant activity in albino CF-1 mouse assessed as protection against 6 Hz psychomotor seizure at 100 mg/kg, ip after 0.5 hrs by minimal clonic seizure test relative to control; format: functional; details: route intraperitoneal
Mus musculus [2] = assay: Anticonvulsant activity in albino CF-1 mouse assessed as protection against 6 Hz psychomotor seizure at 100 mg/kg, ip after 1 hr by minimal clonic seizure test relative to control; format: functional; details: route intraperitoneal
[3] = Neuroprotective activity in hippocampal slices (unknown origin) assessed as protection against kainic acid-induced cell death by propidium-iodide staining-based fluorescence assay; format: functional, tissue-based; details: Hippocampus
Rattus norvegicus [4] = assay: Anticonvulsant activity in albino Sprague-Dawley rat assessed as protection against pilocarpine-induced status epilepticus at 600 mg/kg, ip administered prior to pilocarpine-challenge; format: functional, organism-based; parameters: dose 600 mg/kg
Rattus norvegicus [5] = assay: Neurotoxicity in albino Sprague-Dawley rat assessed as motor impairment up to 600 mg/kg, ip measured for 4 hrs; format: toxicity, organism-based; parameters: dose 600 mg/kg, route intraperitoneal; details: in vivo
[6] = Neuroprotective activity in hippocampal slices (unknown origin) assessed as protection against NMDA-induced cell death by propidium-iodide staining-based fluorescence assay; format: functional, tissue-based; details: Hippocampus
Rattus norvegicus [7] = assay: Effect on GABA levels in Wistar rat cerebellum at 30 mg/kg, ip after 2 hrs measured per 100 mg tissue; format: functional; details: route intraperitoneal
Mus musculus [8] = assay: Anticonvulsant activity in albino CF-1 mouse at 300 mg/kg, ip assessed as protection against maximal electroshock-induced seizures in half or more animals after 2 hrs; format: functional, organism-based; parameters: dose 300 mg/kg
Mus musculus [9] = assay: Anticonvulsant activity in albino CF-1 mouse at 300 mg/kg, ip assessed as protection against maximal electroshock-induced seizures in half or more animals after 0.5 hrs; format: functional, organism-based; parameters: dose 300 mg/kg
Rattus norvegicus [10] = assay: Effect on GABA levels in Wistar rat midbrain at 30 mg/kg, ip after 2 hrs measured per 100 mg tissue; format: functional; details: route intraperitoneal
Mus musculus [11] = assay: Anticonvulsant activity in albino CF-1 mouse at 300 mg/kg, ip assessed as protection against maximal electroshock-induced seizures in half or more animals after 4 hrs relative to control; format: functional; details: route intraperitoneal
Mus musculus [12] = assay: Anticonvulsant activity in ip dosed albino CF-1 mouse assessed as protection against maximal electroshock-induced seizures in half or more animals after 4 hrs; format: functional; details: albino CF-1, ip, read-out: MED
Rattus norvegicus [13] = assay: Effect on GABA levels in Wistar rat medulla oblongata at 30 mg/kg, ip after 2 hrs measured per 100 mg tissue; format: functional; details: route intraperitoneal
Mus musculus [14] = assay: Anticonvulsant activity in albino CF-1 mouse assessed as protection against subcutaneous metrazole-induced seizures in half or more animals at 300 mg/kg, ip after 0.5 hrs; format: functional, organism-based; parameters: dose 300 mg/kg
Mus musculus [15] = assay: Anticonvulsant activity in albino CF-1 mouse assessed as protection against subcutaneous metrazole-induced seizures in half or more animals at 300 mg/kg, ip after 4 hrs; format: functional, organism-based; parameters: dose 300 mg/kg
Rattus norvegicus [16] = assay: Effect on GABA levels in Wistar rat olfactory lobe at 30 mg/kg, ip after 2 hrs measured per 100 mg tissue; format: functional; details: route intraperitoneal
Mus musculus [17] = assay: Anticonvulsant activity in ip dosed albino CF-1 mouse assessed as protection against 6 Hz psychomotor seizure after 4 hrs by minimal clonic seizure test; format: functional; details: albino CF-1, ip
Mus musculus [18] = assay: Anticonvulsant activity in albino CF-1 mouse assessed as protection against 6 Hz psychomotor seizure at 100 mg/kg, ip after 2 hrs by minimal clonic seizure test relative to control; format: functional; details: route intraperitoneal
Mus musculus [19] = assay: Anticonvulsant activity in albino CF-1 mouse assessed as protection against 6 Hz psychomotor seizure at 100 mg/kg, ip after […] by minimal clonic seizure test relative to control
Description: Anticonvulsant activity in albino CF-1 mouse assessed as protection against 6 Hz psychomotor seizure at 100 mg/kg, ip after 0.25 hrs by minimal clonic seizure test relative to control

[20] = Inhibition of voltage-dependent calcium channel subunit alpha-2/delta gabapentin binding site (unknown origin); parameters: species or system Homo sapiens

SMILES: Cc1cc(Oc2ccc(/C=N/NC(=S)NC3CCCCC3)cc2)ccc1Cl
Activity (Mus musculus [2]): 75% | logP at 24 h (physchem): 6.76 | Activity (Mus musculus [19]): inactive

SMILES: Cc1cc(Oc2ccc(/C=N/NC(=S)Nc3ccccc3)cc2)ccc1Cl
logP at 24 h (physchem): 6.03 | Activity (Mus musculus [19]): inactive

SMILES: O=C(O)[C@H]1CNCC12CCCCC2
IC50 [20]: 120 nM

SMILES: S=C(N/N=C/c1ccc(Oc2ccccc2)cc1)NC1CCCCC1
logP at 24 h (physchem): 5.7

SMILES: Fc1ccc(Oc2ccc(/C=N/NC(=S)NC3CCCCC3)cc2)cc1
logP at 24 h (physchem): 5.82 | Activity (Mus musculus [19]): inactive | Activity (Mus musculus [18]): 50%

SMILES: S=C(N/N=C/c1ccc(Oc2ccc3ccccc3c2)cc1)NC1CCCCC1
logP at 24 h (physchem): 6.79

SMILES: O=[N+]([O-])c1ccc(Oc2ccc(/C=N/NC(=S)NC3CCCCC3)cc2)cc1
logP at 24 h (physchem): 5.51

SMILES: S=C(N/N=C/c1ccc(Oc2ccc3ccccc3c2)cc1)Nc1ccccc1
logP at 24 h (physchem): 6.07

Second part, led by results:

logP at 24 h (physchem): 5.84
SMILES: Cc1ccc(NC(=S)N/N=C/c2ccc(Oc3ccc(C)cc3)cc2)cc1

logP at 24 h (physchem): 6.71
SMILES: Cc1ccc(NC(=S)N/N=C/c2ccc(Oc3ccc(Cl)cc3)cc2)cc1

logP at 24 h (physchem): 4.99
SMILES: COc1ccc(NC(=S)N/N=C/c2ccc(Oc3ccccc3)cc2)cc1
Activity (Mus musculus [1]): 50% | Activity (Mus musculus [2]): 75% | Activity [3]: inactive | Activity (Rattus norvegicus [4]): inactive | Activity (Rattus norvegicus [5]): Non-toxic | Activity [6]: inactive

logP at 24 h (physchem): 5.39
SMILES: Cc1ccc(Oc2ccc(/C=N/NC(=S)Nc3ccccc3)cc2)cc1

logP at 24 h (physchem): 5.44
SMILES: COc1ccc(NC(=S)N/N=C/c2ccc(Oc3ccc(C)cc3)cc2)cc1
Activity (Rattus norvegicus [7]): 27.02 mg | Activity (Mus musculus [8]): inactive | Activity (Mus musculus [9]): inactive | Activity (Mus musculus [2]): 100% | Activity (Rattus norvegicus [10]): 58.09 mg | Activity (Mus musculus [11]): 100% | minimal effective dose (Mus musculus [12]): 300 mg/kg | Activity (Rattus norvegicus [13]): 50.08 mg | Activity [3]: inactive | Activity (Mus musculus [14]): inactive | Activity (Mus musculus [15]): inactive | Activity (Rattus norvegicus [4]): inactive | Activity (Rattus norvegicus [16]): 15.84 mg | ED50 (Mus musculus [17]): > 100 mg/kg | Activity (Mus musculus [18]): 50% | Activity (Rattus norvegicus [5]): Non-toxic | Activity [6]: inactive

logP at 24 h (physchem): 5.68
SMILES: COc1ccc(NC(=S)N/N=C/c2ccc(Oc3ccc(Cl)cc3)cc2)cc1

logP at 24 h (physchem): 6.56
SMILES: Cc1ccc(NC(=S)N/N=C/c2ccc(Oc3ccc4ccccc4c3)cc2)cc1

logP at 24 h (physchem): 4.95
SMILES: O=[N+]([O-])c1ccc(Oc2ccc(/C=N/NC(=S)Nc3ccccc3)cc2)cc1

logP at 24 h (physchem): 5.52
SMILES: S=C(N/N=C/c1ccc(Oc2ccc(Cl)cc2)cc1)Nc1ccccc1

logP at 24 h (physchem): 5.09
SMILES: Fc1ccc(Oc2ccc(/C=N/NC(=S)Nc3ccccc3)cc2)cc1
Activity (Mus musculus [19]): inactive

logP at 24 h (physchem): 5.84
SMILES: COc1ccc(NC(=S)N/N=C/c2ccc(Oc3ccc(Br)cc3)cc2)cc1
